Reference: US9187459B2, “Quinazoline-7-ether compounds and methods of use” (NewGen Therapeutics, Inc., priority 2011, dated 2015)
Each block holds one compound with its values, some of them ahead of it.

How the values were obtained:
[1] = Pharmacokinetics studies in mice; type: in vivo, CD-1 mice; conditions: for bioavailability: CD-1, plasma, mouse; for AUC(0-t) / Cmax / MRT / AUC(0-inf) / half-life: CD-1, mouse plasma
Procedure: (§1) The test article each was dissolved in 10% DMSO and 90% of (40% HP-β-CD in deionized water) to yield concentration at 0.4 mg/mL for intravenous administration, and 1 mg/mL for oral administration.
(§2) Method development and plasma samples analysis were performed by Analytical Sciences Division of the Testing Facility by means of LC-MS/MS. The analytical results were confirmed using quality control samples for intra-assay variation (within day variation). The accuracy of >66% of the quality control samples was between 80-120% of the known value(s).
Each group is consisted 30 CD-1 mice (supplied by Sino-British SIPPR/BK Lab. Animal Ltd., Co, Shanghai), 5-8 week old, 20-28 g body weight. The test articles were administered by a single bolus intravenous injection or via oral gavage.
Any animals in poor health were identified for further monitoring or possible euthanasia.
Blood samples (at least 300 μL/sample) were collected via cardiac puncture after euthanasia by carbon dioxide inhalation at appropriate time points for determination of the plasma concentrations of the test article. Samples were placed in tubes containing K3-EDTA and stored on ice until centrifuged.
Three mice in each group were used for blood collection at each of the 10 time points (Groups 1-10): Pre-dose and post-dose at 5 min, 15 min, 30 min, 1 h, 2 h, 4 h, 6 h, 8 h and 24 h.
The PK blood samples were centrifuged at approximately 8000 rpm for 6 minutes at 2-8° C. and the resulting plasma were separated and stored frozen at approximately −80° C. (following separation, the plasma may be initially placed on ice prior to being stored in the −80° C. freezer). All the plasma samples were labeled with detailed information such as study number, animal number, matrix, time points of collection and date of collection.
Standard set of parameters including Area Under the Curve (AUC(0-t) and AUC(0-∞)), elimination half-live (T1/2), maximum plasma concentration (Cmax), time to reach maximum plasma concentration (Tmax), clearance (CL), and volume of distribution (Vz) were calculated using noncompartmental analysis modules in FDA certified pharmacokinetic program WinNonlin Professional v5.2 (Pharsight, USA) by the Study Director. Furthermore, the Bioavailability was estimated using the following formula:
• AUC(0-t) Area under the curve from the time of dosing to the last measurable concentration • AUC(0-∞) Area under the curve from the time of dosing extrapolated to infinity, based on the last observed concentration • CL Total body clearance, CL=Dose/AUC • Cmax Maximum observed concentration, occurring at Tmax • F Bioavailability • MRT(0-∞) Mean residence time from the time of dosing to infinity • Tmax Time of maximum observed concentration • T1/2 Terminal half-life=ln(2)λz • Vz Volume of distribution based on the terminal phase

[2] = Pharmacokinetics studies in rats; type: in vivo, Sprauge Dawley rats; conditions: for bioavailability / AUC(0-inf) / AUC(0-t) / Cmax / clearance / half-life / Vd: male, Sprague-Dawley; for bioavailability: plasma, rat; for AUC(0-inf) / AUC(0-t) / Cmax / clearance / half-life / Vd / CL / Vz: rat plasma; for Vd: read-out: Vz
Procedure: as §1, §2
Each group consisted 3 male Sprauge Dawley rats (7-8 week old, 200-300 g body weight). The test articles were administered by a single bolus intravenous injection via the lateral tail vein or via oral gavage.
Blood samples (approximately 300 μl) were collected via retro-orbital puncture after anaesthesia using mixed gas (CO2:O2=7:3) into tubes containing EDTA-K3 anticoagulant at appropriate time points. 10 time points (Groups 1-2): Pre-dose and post-dose at 5 min, 15 min, 30 min, 1 h, 2 h, 4 h, 6 h, 8 h and 24 h.
The PK blood samples were processed and analyzed using the same methods as in Example 10.

[3] = test system: NCI-N87 xenograft; assay: In vivo efficacy in NCI-N87 xenograft mouse model
Procedure: NCI-N87 cell line was purchased from ATCC (American Type Culture Collection) and was cultured in RPMI1640+10% FBS+1% P/S antibiotics.
Male Balb/c nude mice, 6-8 week, 18±2 g (supplier: Shanghai SLAC Laboratory Animal Co. Ltd.) were used for the experiment. The purchased mice were adapted to the environment for 7 days before use, and were housed at 22-25° C. with humidity 40-70%, and light cycle with fluorescent light for 12-hour light (8:00-20:00) 12-hour dark. The mice have free access to food and water.
The cancer cells (NCI-N87) were implanted subcutaneous into the nude mice (right flank) with 5.0×10^6 cells in 0.1 ml PBS (50 mice). When the tumor size reaches a volume of 200 (150-200) mm^3, the tumor-bearing nude mice were randomly assigned into groups (10 mice/group), one group was served as vehicle, one group was administrated with Lapatinib ditosylate monoydrate (80 mg/kg, free base of Lapatinib, not salt, p.o. bid). The other two groups were administrated with NT112 (15 and 30 mg/kg, p.o. q.d, respectively). The administration period lasted for 4 weeks.
The mice were monitored twice daily for appearance and behavior, and for signs of morbidity and/or mortality. The tumor volume was measured twice a week, and the body weight was measured immediately before measuring the tumor volume throughout the whole study.
At end of the experiment (compound administration for four weeks), all the tumor-bearing mice were sacrificed by cervical dislocation under deep anesthesia. The tumor mass was resected, and weighed.
Tumor sizes were measured twice weekly in two dimensions using a caliper, and the volume was expressed in mm^3 using the formula: V=½×a×b^2 where a and b are the long and short diameters of the tumor, respectively. The tumor mass was weighed at the end of the experiment after harvested. V=½×a×b^2 (a, b is maximum and minimum diameters respectively). RTV(Relative Tumor Volume)=Vt/Vo • Vo is the tumor volume when the test article is initial administrated • Vt is the tumor volume of every measurement day after test article administration T/C(%)=TRTV/CRTV×100% • TRTV: RTV of test article-treatment group; CRTV: RTV of control group Inhibition rate (%)=(average tumor volume of control group−average cancer volume of test article treatment group)/average tumor volume of control group×100%

[4] = target: ErbB2 (HER2) (Homo sapiens (Human), UniProt P04626); assay: Kinase inhibition assay (TR-FRET, LanthaScreen), ErbB2 (HER2); type: biochemical; conditions: ATP 1 mM
ErbB2 (HER2), sequence (P04626 23-1255): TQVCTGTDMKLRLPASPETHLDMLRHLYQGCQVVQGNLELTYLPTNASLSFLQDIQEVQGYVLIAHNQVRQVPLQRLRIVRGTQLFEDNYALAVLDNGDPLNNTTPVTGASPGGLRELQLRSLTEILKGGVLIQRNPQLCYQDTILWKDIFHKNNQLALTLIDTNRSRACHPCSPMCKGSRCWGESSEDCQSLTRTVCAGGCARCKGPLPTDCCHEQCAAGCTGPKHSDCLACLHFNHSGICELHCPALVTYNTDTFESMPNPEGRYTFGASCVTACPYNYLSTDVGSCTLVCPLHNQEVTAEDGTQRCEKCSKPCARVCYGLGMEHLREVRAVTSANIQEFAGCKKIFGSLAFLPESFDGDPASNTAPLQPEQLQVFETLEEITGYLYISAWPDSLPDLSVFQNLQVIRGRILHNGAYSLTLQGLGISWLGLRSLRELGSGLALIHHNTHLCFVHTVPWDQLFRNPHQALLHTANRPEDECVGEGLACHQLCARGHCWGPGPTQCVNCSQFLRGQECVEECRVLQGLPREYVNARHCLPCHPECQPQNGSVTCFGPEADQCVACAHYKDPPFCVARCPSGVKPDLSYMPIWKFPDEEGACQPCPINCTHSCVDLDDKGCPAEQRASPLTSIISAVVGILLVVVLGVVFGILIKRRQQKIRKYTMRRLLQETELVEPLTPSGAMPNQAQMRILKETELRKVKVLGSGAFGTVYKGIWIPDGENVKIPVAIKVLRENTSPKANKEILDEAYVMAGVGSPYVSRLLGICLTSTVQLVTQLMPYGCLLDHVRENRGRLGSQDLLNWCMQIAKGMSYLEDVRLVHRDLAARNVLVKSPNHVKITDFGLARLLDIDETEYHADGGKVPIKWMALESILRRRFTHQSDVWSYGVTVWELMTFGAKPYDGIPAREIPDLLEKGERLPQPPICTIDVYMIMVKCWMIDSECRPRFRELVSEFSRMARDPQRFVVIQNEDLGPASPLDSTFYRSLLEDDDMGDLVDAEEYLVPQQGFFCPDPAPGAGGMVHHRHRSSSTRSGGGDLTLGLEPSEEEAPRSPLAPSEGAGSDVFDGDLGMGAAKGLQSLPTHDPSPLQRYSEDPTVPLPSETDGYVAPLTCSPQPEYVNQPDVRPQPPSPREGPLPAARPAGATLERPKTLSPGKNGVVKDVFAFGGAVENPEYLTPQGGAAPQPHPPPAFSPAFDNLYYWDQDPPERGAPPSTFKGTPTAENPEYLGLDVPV
Procedure: 1) The compound is dissolved in DMSO to prepare a 10 mM solution, and was diluted to 100 micoM with water. […] Kinase activity was determined with time-resolved Fret (TR-FRET) assay (LanthaScreen® kinase activity assay, from InVitrogen).
2) The assay is performed in a Black 384-well plate (from Corning). The kinase and the compound was incubated for […] at room temperature. ATP (1 mM) and fluorescein-poly GT were added, and the reaction was incubated for […]. Detection agent SA-XL665 (from Cisbio Assay) and TK Ab-Cryptate detection antibody (from InVitrogen) were added to stop the reaction.
3) The 384-well plate was sealed and incubated for 1 hour. The fluorescence was then measured at […] (Cryptate) and 665 nM (XL655) wavelength.
4) Each concentration of compound was done in triplicate, and vehicle (without compound) and a positive control were used.
Data process: the ratio of fluorescence is calculated (value of fluorescence 665 nM over […]). The results are calculated from: signal=compound fluorescence ratio−vehicle ratio, and the IC50 was calculated based on inhibition curve.

[5] = test system: Human breast cancer BT474 cells; assay: Cell proliferation inhibition assay for BT474 (CCK-8); type: cell-based; conditions: BT-474, 72 h, text calls it EC50
Procedure: 1) Human breast cancer BT474 cells were plated 10000 cells/well in a 96-well clear tissue culture plate. The cells were incubated for 24 h at 37° C. to allow adherence.
2) A serials of concentrations of each compound (ranging from 30 uM to 0.16 nM, 5-fold dilution) in 96-well plate, and incubated for 72 h. Each concentration was tested in triplicate. During the cell proliferation assay, BT474 cells were cultured in the complete cell culture solution (low-glucose DMEM containing 5% FBS, 50 ug/ml gentamicin).
3) The culture medium was removed via aspiration, and the cell viability was detected by CCK-8 cell proliferation kit.
4) The EC50 was calculated based on the proliferation curve.

bioavailability ([1]; IV 1 mg/Kg (reference)): 100% | bioavailability ([1]; PO 5 mg/Kg): 62% | AUC(0-t) ([1]; IV 1 mg/Kg): 54 ng·h/mL | Cmax ([1]; IV 1 mg/Kg): 109 ng/mL | MRT ([1]; IV 1 mg/Kg): 1.6 h | AUC(0-t) ([1]; PO 5 mg/Kg): 167 ng·h/mL | Cmax ([1]; PO 5 mg/Kg): 17.6 ng/mL | MRT ([1]; PO 5 mg/Kg): 9.3 h | bioavailability ([2]; IV 1 mg/Kg (reference)): 100% | bioavailability ([2]; po, 5 mg/kg): 44.7% | AUC(0-inf) ([2]; IV 1 mg/Kg): 147 ng·h/mL | AUC(0-t) ([2]; IV 1 mg/Kg): 137 ng·h/mL | Cmax ([2]; IV 1 mg/Kg): 55.6 ng/mL | clearance ([2]; IV 1 mg/Kg): 114 mL/min/kg | half-life ([2]; IV 1 mg/Kg): 5.12 h | Vd ([2]; IV 1 mg/Kg): 15.2 L/kg | AUC(0-inf) ([2]; PO 5 mg/Kg): 328 ng·h/mL | AUC(0-t) ([2]; PO 5 mg/Kg): 215 ng·h/mL | Cmax ([2]; PO 5 mg/Kg): 49.2 ng/mL | half-life ([2]; PO 5 mg/Kg): 11 h | CL ([2]; PO 5 mg/Kg): 254.3 mL/min/kg | Vz ([2]; PO 5 mg/Kg): 73.02 L/kg
Compound: CN(C)C/C=C/C(=O)Nc1cc2c(Nc3ccc(F)c(Cl)c3)ncnc2cc1O[C@H]1CCOC1 [afatinib, reference compound]

IC50 [4]: 22 nM | IC50 [5]: 25.6 nM
Compound: CN(C)C/C=C/C(=O)Nc1cc2c(Nc3ccc(F)c(Cl)c3)ncnc2cc1OC[C@@]12COC[C@@H]1C2 [Example 4, (E)-N-(7-(((1R,5R)-3-oxa-bicyclo[3.1.0]hexan-1-yl)methoxy)-4-(3-chloro-4-fluorophenylamino)quinazolin-6-yl)-4-(dimethylamino)but-2-enamide]

IC50 [4]: 23 nM | IC50 [5]: 31.8 nM
Compound: CN(C)C/C=C/C(=O)Nc1cc2c(Nc3ccc(F)c(Cl)c3)ncnc2cc1OC[C@]12COC[C@H]1C2 [Example 3, (E)-N-(7-(((1S,5S)-3-oxa-bicyclo[3.1.0]hexan-1-yl)methoxy)-4-(3-chloro-4-fluorophenylamino)quinazolin-6-yl)-4-(dimethylamino)but-2-enamide]

IC50 [4]: 91 nM | IC50 [5]: 157 nM
Compound: CN(C)C/C=C/C(=O)Nc1cc2c(Nc3ccc(F)c(Cl)c3)ncnc2cc1OCC12COCC1C2 (stereo not drawn) [Example 5, (E)-N-(7-((3-oxa-bicyclo[3.1.0]hexan-1-yl)methoxy)-4-(3-chloro-4-fluorophenylamino)quinazolin-6-yl)-4-(dimethylamino)but-2-enamide]

IC50 [4]: 6 nM | IC50 [5]: 19.1 nM
Compound: CN(C)C/C=C/C(=O)Nc1cc2c(Nc3ccc(F)c(Cl)c3)ncnc2cc1OCC1C2COCC21 (stereo not drawn) [Example 2, (E)-N-(7-((3-oxa-bicyclo[3.1.0]hexan-6-yl)methoxy)-4-(3-chloro-4-fluorophenylamino)quinazolin-6-yl)-4-(dimethylamino)but-2-enamide]

More lines, now with the values behind:

Compound: CN(C)C/C=C/C(=O)Nc1cc2c(Nc3ccc(F)c(Cl)c3)ncnc2cc1OC[C@H]1[C@@H]2COC[C@@H]21 [NT112]
side effect ([3]; 15 mg/kg po qd, 4 weeks): without predefined side effect | body weight change ([3]; 30 mg/kg p.o. qd, 7 days/week, onset day 3, maximal day 11, dosing stopped, recovered by day 28): led to body weight loss | RTV T/C ([3]; day 7, 15 mg/kg po qd): < 30% | tumor growth inhibition ([3]; day 7, 15 mg/kg po qd): > 70% | RTV T/C ([3]; day 7, 30 mg/kg po qd): < 30% | tumor growth inhibition ([3]; day 7, 30 mg/kg po qd): > 70% | bioavailability ([1]; IV 1 mg/Kg (reference)): 100% | bioavailability ([1]; PO 5 mg/Kg): 49.7% | AUC(0-inf) ([1]; IV 1 mg/Kg): 592 ng·h/mL | AUC(0-t) ([1]; IV 1 mg/Kg): 575 ng·h/mL | Cmax ([1]; IV 1 mg/Kg): 236 ng/mL | half-life ([1]; IV 1 mg/Kg): 4.44 h | AUC(0-inf) ([1]; PO 5 mg/Kg): 1470 ng·h/mL | AUC(0-t) ([1]; PO 5 mg/Kg): 1420 ng·h/mL | Cmax ([1]; PO 5 mg/Kg): 272 ng/mL | half-life ([1]; PO 5 mg/Kg): 11.1 h | bioavailability ([2]; IV 1 mg/Kg (reference)): 100% | bioavailability ([2]; po, 5 mg/kg): 68% | AUC(0-inf) ([2]; IV 1 mg/Kg): 248 ng·h/mL | AUC(0-t) ([2]; IV 1 mg/Kg): 220 ng·h/mL | Cmax ([2]; IV 1 mg/Kg): 59.3 ng/mL | clearance ([2]; IV 1 mg/Kg): 67.2 mL/min/kg | half-life ([2]; IV 1 mg/Kg): 6.05 h | Vd ([2]; IV 1 mg/Kg): 10.6 L/kg | AUC(0-inf) ([2]; PO 5 mg/Kg): 843 ng·h/mL | AUC(0-t) ([2]; PO 5 mg/Kg): 434 ng·h/mL | Cmax ([2]; PO 5 mg/Kg): 74.9 ng/mL | half-life ([2]; PO 5 mg/Kg): 20 h | exposure and oral bioavailability with oral administration, compared to afatinib ([2]; oral administration): higher exposure and better oral bioavailability | CL ([2]; PO 5 mg/Kg): 98.8 mL/min/kg | Vz ([2]; PO 5 mg/Kg): 51.55 L/kg

Compound: CS(=O)(=O)CCNCc1ccc(-c2ccc3ncnc(Nc4ccc(OCc5cccc(F)c5)c(Cl)c4)c3c2)o1 [Lapatinib, reference compound]
RTV T/C ([3]; day 7, 80 mg/kg p.o. bid): 31% | tumor growth inhibition rate ([3]; day 7, 80 mg/kg p.o. bid): 69% | tumor inhibition rate ([3]; day 28 (last day of the study), 80 mg/kg p.o. bid): 92.9%

Compound: CO[C@@H]1CO[C@@H]2[C@H]1OC[C@@H]2Oc1cc2ncnc(Nc3ccc(F)c(Cl)c3)c2cc1NC(=O)/C=C/CN(C)C [Example 1, (E)-N-(7-((3R,3aS,6S,6aS)-hexahydro-3-methoxyfuro[3,2-b]furan-6-yloxy)-4-(3-chloro-4-fluorophenylamino)quinazolin-6-yl)-4-(dimethylamino)but-2-enamide]
IC50 [4]: 25 nM | IC50 [5]: 35.9 nM
